Test system: 565726-208-R1-J5-PDC complex spheroids, growth inhibition
Test: Anticancer human tumor 565726-208-R1-J5-PDC patient-derived pancreatic adenocarcinoma cell line growth inhibition [RAS]
Conditions: for IC50: curve of first compound; for viability, T/C: stronger effect = lower value
Excerpt: RAS pathway inhibitors in Combinations in Complex Spheroids
A high-throughput screen of multi-cell type tumor spheroids was designed to identify active combinations of RAS pathway inhibitors and targeted small molecules. Complex spheroids include a stromal component modeled by human endothelial cells (HUVEC) and fibroblasts modeled by human mesenchymal stem cells (MSCs). The concentration ranges selected for each drug and investigational agent were based upon clinically achievable concentrations if the clinical Cmax of the agent was known.
Compounds. The drugs and investigational agents: abemaciclib (NSC768073), cobimetinib (NSC768068), divarasib (GDC6063, NSC841802), docetaxel (NSC628503), GDC-1971 (RLY-1971, NSC841576), gemcitabine (NSC613327), inavolisib (NSC800729), ipatasertib (NSC767898), KB-0742 (NSC834161), MRTX-1133 (NSC836407), osimertinib (NSC779217), RMC-4630 (NSC839698), RMC-6236 (NSC851965), RMC-6291 (NSC852671), Ro-3306 (NSC812927), sapanisertib (NSC764658), SN-38 (NSC673596), staurosporine (NSC755774), SY5609 (NSC837396), and tovorafenib (DAY101, NSC766906), were obtained from the National Cancer Institute (NCI) Developmental Therapeutics Program Chemical Repository. The FDA-approved anticancer drug set is available from the NCI Developmental Therapeutics Program. […] The stock solutions were prepared in dimethyl sulfoxide (DMSO, Sigma-Aldrich, St. Louis, MO, cat. D2650) at 800-fold the tested concentration and stored at -70 degrees C prior to their use. All drugs and investigational agents were tested over a range starting from a high concentration at or near the clinical Cmax and decreasing in half-log increments. If the clinical Cmax for an agent had not been determined, the highest concentration tested was 10 microM.
Cell Culture. All cells were maintained in an incubator at 37 degrees C and 5% CO2 with 95% humidity. The PDC lines were cultured according to standard operating procedures established by the NCI PDMR. All PDCs were thawed and cultured in Matrigel-coated flasks prepared with a working solution of 1X Ham's F-12 nutrient mix, without supplementation (Invitrogen, Waltham, MA, cat. 11765054), 100 U/mL penicillin-streptomycin (Invitrogen, cat. 15140122), and 2.5% Matrigel (Corning Inc., Corning, NY, cat. 354248) for the first three passages. The 362531-283-R-J2-PDC and 782815-120-R-J1-PDC lines were cultured in 6C/Colon 1B media, which includes advanced DMEM/F-12 (Thermo Fisher Scientific, cat. 12634028), 10 mM HEPES (Thermo Fisher Scientific, cat. 15630080), 1X GlutaMAX supplement (Thermo Fisher Scientific, cat. 35050061), 0.1 mg/mL primocin (InvivoGen, San Diego, CA, cat. ant-pm-2), 10% defined fetal bovine serum, heat inactivated (HyClone Laboratories Inc., Logan, UT, cat. SH30070.03HI), 50% L-WRN conditioned media (ATCC, cat. CRL-3276), 1.25 mM N-Acetyl-L-cysteine (Sigma-Aldrich, cat. A9165), 10 mM nicotinamide (Sigma-Aldrich, cat. N0636), 1X B-27 supplement (Thermo Fisher Scientific, cat. 17504044), 1X N-2 supplement (Thermo Fisher Scientific, cat. 17502048), 50 ng/mL human EGF (Thermo Fisher Scientific, cat. PHG0311), and 10 microM Y-27632 dihydrochloride (Tocris Bioscience, cat. 1254). The K12877-001-R-J1-PDC line was cultured in 6I media, which includes all 6C/Colon 1B media plus 10 ng/mL human FGF-10 (PeproTech, cat. 100-26), 1 ng/mL human FGF-2 (PeproTech, cat. 100-18B), 1 µM prostaglandin E2 (Tocris Bioscience, cat. 2296), […] hydrocortisone (Sigma-Aldrich, cat. H4001), and […] bovine insulin (Sigma-Aldrich, cat. I6634). The K86415-001-R-J1-PDC line was cultured in 6D media, which includes all 6C/Colon 1B media components minus the L-WRN conditioned media. The 485176-168-R4-J1-PDC was cultured in PANC media, which includes all 6C/Colon 1B media plus 100 ng/mL human FGF-10 (PeproTech, cat. 100-26), 500 nM SB-431542 (Selleckchem, cat. S1067), and 10 nM gastrin (Tocris Bioscience, cat. 3006). […]
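Note: spheroids exposed to compounds for seven days before readout.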
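Throughout, for viability, T/C: 100% = DMSO vehicle control viability.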

Question: What does the source list for `C=CC(=O)Nc1cc(Nc2nccc(-c3cn(C)c4ccccc34)n2)c(OC)cc1N(C)CCN(C)C` + C#Cc1c(F)ccc2cc(O)cc(-c3ncc4c(N5CC6CCC(C5)N6)nc(OCC56CCCN5CC(F)C6)nc4c3F)c12?
Answer: IC50 (second compound 0.0316 µM): > 1 µM; IC50 (second compound 0.1 µM): > 1 µM; IC50 (second compound 0.316 µM): > 1 µM; IC50 (second compound 1 µM): > 1 µM; IC50 (second compound 3.16 µM): > 1 µM; IC50 (second compound 10 µM): 0.0709 µM; viability, T/C (second compound 0.0316 µM, first compound 0.00316 µM): 120%; viability, T/C (second compound 0.0316 µM, first compound 0.01 µM): 139%; viability, T/C (second compound 0.0316 µM, first compound 0.0316 µM): 96.1%; viability, T/C (second compound 0.0316 µM, first compound 0.1 µM): 101%; viability, T/C (second compound 0.0316 µM, first compound 0.316 µM): 130%; viability, T/C (second compound 0.0316 µM, first compound 1 µM): 103%; viability, T/C (second compound 0.1 µM, first compound 0.00316 µM): 113%; viability, T/C (second compound 0.1 µM, first compound 0.01 µM): 144%; viability, T/C (second compound 0.1 µM, first compound 0.0316 µM): 102%; viability, T/C (second compound 0.1 µM, first compound 0.1 µM): 92.3%; viability, T/C (second compound 0.1 µM, first compound 0.316 µM): 121%; viability, T/C (second compound 0.1 µM, first compound 1 µM): 97.5%; viability, T/C (second compound 0.316 µM, first compound 0.00316 µM): 127%; viability, T/C (second compound 0.316 µM, first compound 0.01 µM): 130%; viability, T/C (second compound 0.316 µM, first compound 0.0316 µM): 88.9%; viability, T/C (second compound 0.316 µM, first compound 0.1 µM): 77.6%; viability, T/C (second compound 0.316 µM, first compound 0.316 µM): 113%; viability, T/C (second compound 0.316 µM, first compound 1 µM): 98.1%; viability, T/C (second compound 1 µM, first compound 0.00316 µM): 138%; viability, T/C (second compound 1 µM, first compound 0.01 µM): 110%; viability, T/C (second compound 1 µM, first compound 0.0316 µM): 76.7%; viability, T/C (second compound 1 µM, first compound 0.1 µM): 68.1%; viability, T/C (second compound 1 µM, first compound 0.316 µM): 87.1%; viability, T/C (second compound 1 µM, first compound 1 µM): 84.7%; viability, T/C (second compound 3.16 µM, first compound 0.00316 µM): 120%; viability, T/C (second compound 3.16 µM, first compound 0.01 µM): 85.2%; viability, T/C (second compound 3.16 µM, first compound 0.0316 µM): 65%; viability, T/C (second compound 3.16 µM, first compound 0.1 µM): 51.2%; viability, T/C (second compound 3.16 µM, first compound 0.316 µM): 72%; viability, T/C (second compound 3.16 µM, first compound 1 µM): 74%; viability, T/C (second compound 10 µM, first compound 0.00316 µM): 89.4%; viability, T/C (second compound 10 µM, first compound 0.01 µM): 86.5%; viability, T/C (second compound 10 µM, first compound 0.0316 µM): 64.1%; viability, T/C (second compound 10 µM, first compound 0.1 µM): 41.2%; viability, T/C (second compound 10 µM, first compound 0.316 µM): 50.7%; viability, T/C (second compound 10 µM, first compound 1 µM): 40.1%

From PubChem BioAssay AID2060899 (Molecular Pharmacology Branch, DTP, NCI, 2025)
